Where two headings read alike, the source gives them in different places.
What was measured:
[1] = molecular target: T1, p110γ (Mus musculus, UniProt Q9JHG7); set-up: method as in PMID 16789742; conditions: read-out: biochemical IC50; cited from earlier work
[2] = molecular target: T2, p110β (Homo sapiens, UniProt P42338); assay: PI3K enzymatic assay (ADP-Glo) with purified enzymes; set-up: heterodimers consisting of full length p110α, p110β, or p110δ catalytic subunit and the p85α regulatory subunit; purchased Millipore 14-603-K; conditions: purified enzyme, mean ± spread (n), read-out: Biochemical IC50
Procedure: Human recombinant PI3K-α (cat. no. 14-602-K), -β (cat. no. 14-603-K), -δ (cat. no. 14-604-K), and -γ (cat. no. 14-558-K) were purchased from Millipore. Phosphatidylinositol 4,5 bis phosphate (diC8-PtdIns(4,5)P2) was purchased from Avanti Polar Lipids, Inc. PI3K-α, β, and δ are heterodimers consisting of full length p110α, p110β, or p110δ catalytic subunit and the p85α regulatory subunit. PI3K-γ is a monomer of the p110γ catalytic subunit. Samples of kinase (10 nM—α, β, and δ; 20 nM—γ) were incubated with inhibitor for 30 min at room temperature in reaction buffer (15 mM HEPES pH 7.4, 20 mM NaCl, 1 mM EGTA, 0.02% Tween 20, 10 mM MgCl2, 0.2 mg/mL bovine-γ-globulins) followed by addition of ATP/diC8-PtdIns(4,5)P2 mixture to give final concentrations of 3 mM ATP and 500 µM diC8-PtdIns(4,5)P2. Reactions were incubated at room temperature for 2 h, with PI3K activity assessed via the Promega ADP-Glo Max assay kit (cat. no. V7002) according to the manufacturer’s instruction. Plates were read on Envision plate reader in luminescence mode.

[3] = test system: p110α; assay: isoform-specific cell-based assay, pAKT S473 ELISA; conditions: read-out: Cellular IC50
Procedure: (§1) Phospho-Akt1 (S473) sandwich ELISA antibody kit (Cell Signaling Technology, cat. no. 7143) was utilized to analyze pAKT signal in cells as described previously by Winkler et al. ([11]) (for data see Table 2). Briefly, SKOV3 and 786.0 cells were seeded into 96-well cell culture-graded plates at a density of […] per 200 µl culture media per well. Raji and Raw264.7 were seeded at the same density in FBS-free media. After overnight incubation at 5% CO2 and 37°C, the cells were treated with inhibitor for 30 min. Raji cells were stimulated with 10 µg/mL anti-human IgM (Jackson ImmunoResearch) for 30 min and Raw264.7 cells with 25 nM C5a (RnD Systems) for 3 min in the presence of inhibitor. SKOV3 and 786.0 cells were not stimulated. Medium was then aspirated and 50 µL/well of ice-cold lysis buffer was added. pAKT level was determined according to the manufacturer’s instruction.

[4] = test system: p110δ; assay: isoform-specific cell-based assay, pAKT S473 ELISA
Procedure: as §1

[5] = set-up: method as in PMID 24211136; conditions: cited from earlier work
[6] = molecular target: T1, p110γ; assay: isoform-specific cell-based assay, pAKT S473 ELISA; set-up: endogenous in cells; host or cells: Raw264.7; conditions: read-out: Cellular IC50
Procedure: as §1

[7] = molecular target: T2, p110β; assay: isoform-specific cell-based assay, pAKT S473 ELISA; set-up: endogenous in cells; host or cells: 786.0; conditions: read-out: Cellular IC50
Procedure: as §1

T2 sequence (P42338 whole entry): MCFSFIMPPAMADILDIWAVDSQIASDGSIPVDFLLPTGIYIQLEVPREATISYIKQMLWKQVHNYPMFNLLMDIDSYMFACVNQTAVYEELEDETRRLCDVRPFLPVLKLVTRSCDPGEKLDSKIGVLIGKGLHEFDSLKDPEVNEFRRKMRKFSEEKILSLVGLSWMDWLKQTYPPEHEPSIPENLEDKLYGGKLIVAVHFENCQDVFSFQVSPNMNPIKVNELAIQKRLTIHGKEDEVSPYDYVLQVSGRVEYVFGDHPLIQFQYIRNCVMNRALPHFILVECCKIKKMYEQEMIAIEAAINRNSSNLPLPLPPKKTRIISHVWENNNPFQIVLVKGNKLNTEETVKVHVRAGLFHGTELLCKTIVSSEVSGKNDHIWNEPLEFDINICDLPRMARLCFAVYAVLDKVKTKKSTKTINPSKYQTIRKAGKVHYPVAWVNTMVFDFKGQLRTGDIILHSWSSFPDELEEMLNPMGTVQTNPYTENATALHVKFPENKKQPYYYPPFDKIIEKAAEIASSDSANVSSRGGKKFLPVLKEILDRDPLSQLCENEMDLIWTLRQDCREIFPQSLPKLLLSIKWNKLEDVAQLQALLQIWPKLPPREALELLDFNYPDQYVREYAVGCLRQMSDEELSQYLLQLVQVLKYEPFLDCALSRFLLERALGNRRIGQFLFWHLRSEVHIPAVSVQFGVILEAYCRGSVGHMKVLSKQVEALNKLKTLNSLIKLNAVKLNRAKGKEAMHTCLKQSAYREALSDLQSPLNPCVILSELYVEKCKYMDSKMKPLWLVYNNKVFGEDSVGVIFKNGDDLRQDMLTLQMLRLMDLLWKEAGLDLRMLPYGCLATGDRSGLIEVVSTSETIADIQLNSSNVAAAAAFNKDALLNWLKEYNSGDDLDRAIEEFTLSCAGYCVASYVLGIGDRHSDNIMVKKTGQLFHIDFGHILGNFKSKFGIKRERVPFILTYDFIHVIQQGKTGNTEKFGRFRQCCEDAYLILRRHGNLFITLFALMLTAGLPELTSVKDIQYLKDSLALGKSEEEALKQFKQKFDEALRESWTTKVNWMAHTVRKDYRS
T2 sequence (P27986 whole entry partner): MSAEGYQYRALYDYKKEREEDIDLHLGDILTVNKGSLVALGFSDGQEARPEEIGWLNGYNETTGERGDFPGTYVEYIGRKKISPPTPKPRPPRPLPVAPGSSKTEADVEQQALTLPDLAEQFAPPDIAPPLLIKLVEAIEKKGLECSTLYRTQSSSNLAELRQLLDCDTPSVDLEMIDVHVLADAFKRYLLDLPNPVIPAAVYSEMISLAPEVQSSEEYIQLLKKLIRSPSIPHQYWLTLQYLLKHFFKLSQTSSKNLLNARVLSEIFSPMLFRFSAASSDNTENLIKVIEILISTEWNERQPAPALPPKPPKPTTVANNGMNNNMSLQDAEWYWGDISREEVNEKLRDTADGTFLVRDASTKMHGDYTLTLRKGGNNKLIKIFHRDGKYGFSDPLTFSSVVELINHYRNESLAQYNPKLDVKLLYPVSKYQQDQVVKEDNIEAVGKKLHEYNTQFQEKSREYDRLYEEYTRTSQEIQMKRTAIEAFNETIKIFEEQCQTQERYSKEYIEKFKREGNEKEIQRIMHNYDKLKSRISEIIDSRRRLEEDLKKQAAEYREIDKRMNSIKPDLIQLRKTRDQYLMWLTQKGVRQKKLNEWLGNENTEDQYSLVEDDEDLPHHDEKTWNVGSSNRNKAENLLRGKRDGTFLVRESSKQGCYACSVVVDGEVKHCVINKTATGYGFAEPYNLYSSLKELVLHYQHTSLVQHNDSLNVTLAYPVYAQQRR
T1 sequence (Q9JHG7 whole entry): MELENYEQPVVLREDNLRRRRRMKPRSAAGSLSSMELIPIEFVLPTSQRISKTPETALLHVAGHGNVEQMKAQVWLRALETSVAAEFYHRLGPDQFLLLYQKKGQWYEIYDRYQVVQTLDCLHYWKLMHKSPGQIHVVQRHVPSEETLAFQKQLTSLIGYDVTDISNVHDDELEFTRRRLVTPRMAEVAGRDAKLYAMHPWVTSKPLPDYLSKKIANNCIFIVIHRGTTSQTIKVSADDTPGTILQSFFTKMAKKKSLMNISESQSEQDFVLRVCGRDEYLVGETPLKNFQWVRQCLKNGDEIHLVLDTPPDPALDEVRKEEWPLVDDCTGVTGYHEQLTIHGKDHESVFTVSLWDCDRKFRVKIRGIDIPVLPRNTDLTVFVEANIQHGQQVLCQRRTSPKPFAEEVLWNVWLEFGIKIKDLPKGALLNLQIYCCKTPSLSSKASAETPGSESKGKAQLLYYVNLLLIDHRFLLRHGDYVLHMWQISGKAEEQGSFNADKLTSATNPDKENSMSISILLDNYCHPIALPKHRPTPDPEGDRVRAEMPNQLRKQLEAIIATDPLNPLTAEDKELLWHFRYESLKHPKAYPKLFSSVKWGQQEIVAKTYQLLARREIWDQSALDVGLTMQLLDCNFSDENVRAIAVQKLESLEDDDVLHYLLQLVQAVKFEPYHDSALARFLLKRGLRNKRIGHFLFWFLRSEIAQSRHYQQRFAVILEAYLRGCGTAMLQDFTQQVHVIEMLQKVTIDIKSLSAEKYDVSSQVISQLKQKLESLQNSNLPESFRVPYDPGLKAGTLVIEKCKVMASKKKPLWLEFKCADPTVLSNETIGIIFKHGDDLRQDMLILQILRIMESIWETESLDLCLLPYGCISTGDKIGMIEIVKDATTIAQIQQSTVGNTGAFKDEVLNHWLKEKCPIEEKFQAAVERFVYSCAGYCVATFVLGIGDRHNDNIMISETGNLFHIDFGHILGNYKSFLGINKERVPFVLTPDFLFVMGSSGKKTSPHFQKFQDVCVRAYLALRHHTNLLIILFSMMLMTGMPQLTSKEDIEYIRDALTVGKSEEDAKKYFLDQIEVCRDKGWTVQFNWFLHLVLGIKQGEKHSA

Row | SMILES | IC50 [1] [nM] | IC50 [2] [nM] | IC50 [3] [nM] | cellular IC50 values for the other class I PI3K isoforms relative to p110δ ([4]; other class I isoforms vs p110δ, cell-based) | IC50 ([4]; p110δ-specific cell-based assay, pAKT S473, read-out: Cellular IC50) [nM] | pharmacokinetics in mice [5] | IC50 [6] [nM] | IC50 [7] [nM]
1 | O=C1NC(=O)/C(=C/c2ccc(-c3ccc(F)cc3O)o2)S1 [AS-252424, reference compound] | 30 | – | – | – | – | – | – | –
2 | CC(C)n1c([C@H](C)Nc2ncnc(N)c2C#N)cc2cccc(-c3ccc(=O)n(C)c3)c2c1=O [IPI-3063] | – | 1510 | 1900 | at least 1,000 fold | 0.1 ± 0.01 | good | 419 ± 117 | 103 ± 35.7

— publication PMC5491903, “The Selective Phosphoinoside-3-Kinase p110δ Inhibitor IPI-3063 Potently Suppresses B Cell Survival, Proliferation, and Differentiation” (Frontiers in Immunology, 2017)
